Data as given in publication PMC5548701, “Selective targeting of melanoma using N-(2-diethylaminoethyl) 4-[^18F]fluoroethoxy benzamide (4-[^18F]FEBZA): a novel PET imaging probe” (EJNMMI Research, 2017).
“And” between values parts separate entries of the source, which are not always exact repeats. Equal entries are not always repeated. Where two headings read alike, the source gives them in different places.

Experiments:
[1] = tested on: B16F1 melanoma tumor xenografts; assay: biodistribution in mice bearing B16F1 tumor xenografts; format: in vivo, C57BL/6 mice; settings: for tumor-to-brain tissue ratio: B16F1 group; for Adrenals %IA/g tissue (mean ± SD) / Blood %IA/g tissue (mean ± SD) / Bone %IA/g tissue (mean ± SD) / Brain %IA/g tissue (mean ± SD) / Heart %IA/g tissue (mean ± SD) / Kidneys %IA/g tissue (mean ± SD) / Liver %IA/g tissue (mean ± SD) / Lung %IA/g tissue (mean ± SD) / Muscles %IA/g tissue (mean ± SD) / Pancreas %IA/g tissue (mean ± SD) / Sm. Intestine %IA/g tissue (mean ± SD) / Spleen %IA/g tissue (mean ± SD): B16F1 tumor mice; for Tumor %IA/g tissue (mean ± SD): B16F1 tumor
Description: (§1) B16F1 melanoma cells, HT-29 human colorectal adenocarcinoma cells, and C-32 amelanotic melanoma cells were purchased from the American Type Culture Collection (ATCC, Rockville, MD). B16F1 murine melanotic melanoma cells were maintained in Dulbecco’s modified Eagles medium supplemented with 10% fetal calf-serum, 2 mM L-glutamine, and 1 mM pyruvate. HT-29 and C-32 cells were maintained in RPMI supplemented with 10% fetal calf serum and 2 mM L-glutamine. C57BL/6 and athymic nu/nu mice were purchased from Charles River Laboratories (Charles River Laboratories, Boston, MA). All animal studies were performed using an IACUC-approved protocol, and the work was performed under the guidelines established by Wake Forest University. The cells were grown to confluency, harvested, washed with phosphate-buffered saline and then were suspended in a 1:1 mixture of phosphate-buffered saline and Matrigel (BD Life Sciences, San Jose, CA) at a concentration of 5 × 10^6 cells/mL. For subcutaneous tumor xenografts, […] in the right flank with 100 μL of a suspension of B16F1 cells, and female athymic nu/nu mice were injected in the right flank with 100 μL of HT-29 cells or C-32 cells.
(§2) The biodistribution studies were performed in mice bearing B16F1 (1 h n = 5; 2 h n = 6), C-32 (1 h n = 3; 2 h n = 3), and HT-29 (1 h n = 3; 2 h n = 3) tumor xenografts. The tumor-bearing mice were injected with ~40 μCi of 4-[^18F]FEBZA. A separate group of normal C57BL/6 mice with no tumor implants (1 h n = 3; 2 h n = 3) was also injected with ~40 μCi of 4-[^18F]FEBZA to study the distribution characteristics of 4-[^18F]FEBZA in the absence of tumors. At 1 h and 2 h post-injection, the mice were euthanized, and the tissues of interest were removed, rinsed with PBS, weighed, and counted for radioactivity contents using a γ-counter.

[2] = tested on: B16F1 cells; assay: homologous competitive binding assay on fixed B16F1 cells; set-up: species or system murine; settings: homologous competition with unlabeled 4-FEBZA, 1 h
Description: After adding 0.1 nmol of 4-[^18F]FEBZA/well as the radioligand, unlabeled 4-FEBZA (2) was added to the quadruplicate sets of wells in concentrations ranging from 10^−11 to 10^−4 M and the plates were incubated for an hour at 37 °C under 5% CO2. At the end of the incubation, the media were removed, and the cells were washed with 500 μL of ice-cold media. The cells were lysed using 1 mL of phosphate-buffered saline containing 10% Triton X-100, and the lysates were collected in culture tubes to measure the radioactivity contents using a γ-counter. We performed a non-linear regression analysis of the decay-corrected CPM values to calculate the inhibition constant value (IC50), the concentration of competitor required to inhibit 50% of radiotracer binding, utilizing the GraphPad Prism software program (GraphPad Software, Inc., CA).

[3] = tested on: C-32 amelanotic melanoma tumor xenografts; assay: biodistribution in mice bearing C-32 tumor xenografts; format: in vivo, athymic nu/nu mice; settings: for Adrenals %IA/g tissue (mean ± SD) / Blood %IA/g tissue (mean ± SD) / Bone %IA/g tissue (mean ± SD) / Brain %IA/g tissue (mean ± SD) / Heart %IA/g tissue (mean ± SD) / Kidneys %IA/g tissue (mean ± SD) / Liver %IA/g tissue (mean ± SD) / Lung %IA/g tissue (mean ± SD) / Muscles %IA/g tissue (mean ± SD) / Pancreas %IA/g tissue (mean ± SD) / Sm. Intestine %IA/g tissue (mean ± SD) / Spleen %IA/g tissue (mean ± SD): C-32 tumor mice; for Tumor %IA/g tissue (mean ± SD): C-32 tumor
Description: as §1, §2

CCN(CC)CCNC(=O)c1ccc(OCC[18F])cc1 [4-[^18F]FEBZA, N-(2-diethylaminoethyl) 4-[^18F]fluoroethoxybenzamide]
tumor-to-brain tissue ratio ([1]; 1 h): 3.55 ± 0.80 | tumor-to-brain tissue ratio ([1]; 2 h): 3.45 ± 0.81 | tumor-to-muscle ratio ([1]; B16F1 mice group, 2 h): 6.64 ± 1.11 | Adrenals %IA/g tissue (mean ± SD) ([1]; 1 h post-injection): 1.10 ± 0.36 %IA/g tissue | Blood %IA/g tissue (mean ± SD) ([1]; 1 h post-injection): 3.06 ± 0.52 %IA/g tissue | Bone %IA/g tissue (mean ± SD) ([1]; 1 h post-injection): 3.78 ± 0.45 %IA/g tissue | Brain %IA/g tissue (mean ± SD) ([1]; 1 h post-injection): 2.55 ± 0.61 %IA/g tissue | Heart %IA/g tissue (mean ± SD) ([1]; 1 h post-injection): 2.82 ± 0.25 %IA/g tissue | Kidneys %IA/g tissue (mean ± SD) ([1]; 1 h post-injection): 3.10 ± 0.28 %IA/g tissue | Liver %IA/g tissue (mean ± SD) ([1]; 1 h post-injection): 3.25 ± 0.34 %IA/g tissue | Lung %IA/g tissue (mean ± SD) ([1]; 1 h post-injection): 2.12 ± 0.17 %IA/g tissue | Muscles %IA/g tissue (mean ± SD) ([1]; 1 h post-injection): 1.51 ± 0.21 %IA/g tissue | Pancreas %IA/g tissue (mean ± SD) ([1]; 1 h post-injection): 2.48 ± 0.35 %IA/g tissue | Sm. Intestine %IA/g tissue (mean ± SD) ([1]; 1 h post-injection): 2.48 ± 0.35 %IA/g tissue and 2.49 ± 0.25 %IA/g tissue | Spleen %IA/g tissue (mean ± SD) ([1]; 1 h post-injection): 2.24 ± 0.36 %IA/g tissue | Adrenals %IA/g tissue (mean ± SD) ([1]; 2 h post-injection): 0.88 ± 0.06 %IA/g tissue | Blood %IA/g tissue (mean ± SD) ([1]; 2 h post-injection): 2.51 ± 0.93 %IA/g tissue | Bone %IA/g tissue (mean ± SD) ([1]; 2 h post-injection): 5.45 ± 0.98 %IA/g tissue | Brain %IA/g tissue (mean ± SD) ([1]; 2 h post-injection): 2.25 ± 0.50 %IA/g tissue | Heart %IA/g tissue (mean ± SD) ([1]; 2 h post-injection): 2.12 ± 0.58 %IA/g tissue | Kidneys %IA/g tissue (mean ± SD) ([1]; 2 h post-injection): 2.20 ± 0.38 %IA/g tissue | Liver %IA/g tissue (mean ± SD) ([1]; 2 h post-injection): 2.28 ± 0.49 %IA/g tissue | Lung %IA/g tissue (mean ± SD) ([1]; 2 h post-injection): 1.49 ± 0.49 %IA/g tissue | Muscles %IA/g tissue (mean ± SD) ([1]; 2 h post-injection): 1.14 ± 0.21 %IA/g tissue | Pancreas %IA/g tissue (mean ± SD) ([1]; 2 h post-injection): 1.73 ± 0.14 %IA/g tissue | Sm. Intestine %IA/g tissue (mean ± SD) ([1]; 2 h post-injection): 1.60 ± 0.31 %IA/g tissue | Spleen %IA/g tissue (mean ± SD) ([1]; 2 h post-injection): 1.58 ± 0.18 %IA/g tissue | Tumor %IA/g tissue (mean ± SD) ([1]; 1 h post-injection): 8.66 ± 1.02 %IA/g tissue | Tumor %IA/g tissue (mean ± SD) ([1]; 2 h post-injection): 7.47 ± 1.34 %IA/g tissue | IC50 ([2]; read-out: IC50, first of two distinct binding sites): 1.8 nM | IC50 ([2]; read-out: IC50, second of two distinct binding sites): 1300 nM | tumor-to-muscle ratio ([3]; C-32 mice group, 2 h): 2.43 ± 0.14 | Adrenals %IA/g tissue (mean ± SD) ([3]; 1 h post-injection): 1.26 ± 0.39 %IA/g tissue | Blood %IA/g tissue (mean ± SD) ([3]; 1 h post-injection): 3.22 ± 0.64 %IA/g tissue | Bone %IA/g tissue (mean ± SD) ([3]; 1 h post-injection): 3.47 ± 0.78 %IA/g tissue | Brain %IA/g tissue (mean ± SD) ([3]; 1 h post-injection): 1.87 ± 0.21 %IA/g tissue | Heart %IA/g tissue (mean ± SD) ([3]; 1 h post-injection): 2.52 ± 0.15 %IA/g tissue | Kidneys %IA/g tissue (mean ± SD) ([3]; 1 h post-injection): 2.85 ± 0.37 %IA/g tissue | Liver %IA/g tissue (mean ± SD) ([3]; 1 h post-injection): 3.11 ± 0.49 %IA/g tissue | Lung %IA/g tissue (mean ± SD) ([3]; 1 h post-injection): 1.94 ± 0.67 %IA/g tissue | Muscles %IA/g tissue (mean ± SD) ([3]; 1 h post-injection): 2.35 ± 1.06 %IA/g tissue | Pancreas %IA/g tissue (mean ± SD) ([3]; 1 h post-injection): 2.49 ± 0.42 %IA/g tissue | Sm. Intestine %IA/g tissue (mean ± SD) ([3]; 1 h post-injection): 2.23 ± 0.21 %IA/g tissue | Spleen %IA/g tissue (mean ± SD) ([3]; 1 h post-injection): 1.96 ± 0.38 %IA/g tissue | Adrenals %IA/g tissue (mean ± SD) ([3]; 2 h post-injection): 0.77 ± 0.18 %IA/g tissue | Blood %IA/g tissue (mean ± SD) ([3]; 2 h post-injection): 2.40 ± 0.30 %IA/g tissue | Bone %IA/g tissue (mean ± SD) ([3]; 2 h post-injection): 5.09 ± 0.72 %IA/g tissue | Brain %IA/g tissue (mean ± SD) ([3]; 2 h post-injection): 1.36 ± 0.17 %IA/g tissue | Heart %IA/g tissue (mean ± SD) ([3]; 2 h post-injection): 1.75 ± 0.35 %IA/g tissue | Kidneys %IA/g tissue (mean ± SD) ([3]; 2 h post-injection): 1.84 ± 0.12 %IA/g tissue | Liver %IA/g tissue (mean ± SD) ([3]; 2 h post-injection): 1.99 ± 0.12 %IA/g tissue | Lung %IA/g tissue (mean ± SD) ([3]; 2 h post-injection): 1.33 ± 0.35 %IA/g tissue | Muscles %IA/g tissue (mean ± SD) ([3]; 2 h post-injection): 1.05 ± 0.14 %IA/g tissue | Pancreas %IA/g tissue (mean ± SD) ([3]; 2 h post-injection): 1.40 ± 0.10 %IA/g tissue | Sm. Intestine %IA/g tissue (mean ± SD) ([3]; 2 h post-injection): 1.33 ± 0.06 %IA/g tissue | Spleen %IA/g tissue (mean ± SD) ([3]; 2 h post-injection): 1.22 ± 0.08 %IA/g tissue | Tumor %IA/g tissue (mean ± SD) ([3]; 1 h post-injection): 3.91 ± 0.23 %IA/g tissue | Tumor %IA/g tissue (mean ± SD) ([3]; 2 h post-injection): 2.53 ± 0.19 %IA/g tissue
